# Target: T1, purified catalytic domain of recombinant human TACE (rhTACEc) (Homo sapiens, UniProt P78536, N452Q/S266A)
# T1 construct: 6xHis (C); made in house; host or cells: baculovirus/Hi5 insect cells
# Experiment: TACE kinetic assay: cleavage of internally quenched peptide substrate TNF-FRET 2 (Ki)
# Type: biochemical
# Conditions: Ki, TNF-FRET 2 substrate
# T1 sequence (P78536 215-477 S266A/N452Q): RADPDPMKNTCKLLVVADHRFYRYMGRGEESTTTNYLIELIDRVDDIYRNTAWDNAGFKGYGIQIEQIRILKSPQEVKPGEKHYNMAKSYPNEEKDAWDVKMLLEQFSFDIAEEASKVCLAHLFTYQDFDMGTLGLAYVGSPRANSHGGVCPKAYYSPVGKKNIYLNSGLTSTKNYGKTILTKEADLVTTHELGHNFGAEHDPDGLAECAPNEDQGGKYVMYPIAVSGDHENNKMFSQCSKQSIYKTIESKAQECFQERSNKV
row,SMILES,Ki [nM]
1,COc1ccc2c(c1)C(=O)N(C[C@@]1(c3cc4ccc(C(=O)N5CCNC(=O)C5)cc4o3)NC(=O)NC1=O)C2 [Compound 2422],0.68
2,COc1ccc2c(c1)C(=O)N(C[C@@]1(c3cc4c(C)nc(O)c(C(=O)O)c4o3)NC(=O)NC1=O)C2 [Compound 2436],2.41
3,CCOC(=O)NCc1ccc2oc([C@]3(CN4Cc5ccc(OC)cc5C4=O)NC(=O)NC3=O)cc2c1 [Compound 2484],0.49
4,COc1ccc2c(c1)C(=O)N(C[C@@]1(c3cc4nc(-c5cccs5)ccc4o3)NC(=O)NC1=O)C2 [Compound 2162],0.125

# Same assay, conditions: TNF-FRET 2 substrate, read-out: Ki
row,Ki [nM],SMILES
1,0.538,COc1ccc2c(c1F)C(=O)N(C[C@@]1(c3cc4cc(-c5cc(=O)[nH]c(N)n5)ccc4o3)NC(=O)NC1=O)C2 [Compound 300]
2,0.491,COc1ccc2c(c1)C(=O)N(C[C@@]1(c3cc4cc(Br)ccc4o3)NC(=O)NC1=O)C2 [Compound 2192]
3,5.38,COc1ccc2c(c1)C(=O)N(C[C@@]1(c3ccc(C(=O)NS(C)(=O)=O)cc3)NC(=O)NC1=O)C2 [Compound 2406]
4,0.578,CNc1cc2oc([C@]3(CN4Cc5ccc(OC)cc5C4=O)NC(=O)NC3=O)cc2cn1 [Compound 2291]
5,0.12,COc1ccc2c(c1)C(=O)N(C[C@@]1(c3cc4nc(C(=O)NC5CC5)ccc4o3)NC(=O)NC1=O)C2 [Compound 1926]
6,4.23,COc1ccc2c(c1)C(=O)N(C[C@@]1(c3cn4c5c(sc4n3)CN(C)CC5)NC(=O)NC1=O)C2 [Compound 503]
7,0.47,COc1ccc2c(c1F)C(=O)N(C[C@@]1(c3cc4nc(Nc5cccnc5)ccc4o3)NC(=O)NC1=O)C2 [Compound 1728]
8,0.49,COc1ccc2c(c1)C(=O)N(C[C@@]1(c3cc4cc(CNC(=O)N(C)C)ccc4o3)NC(=O)NC1=O)C2 [Compound 2486]
9,0.7,COc1ccc2c(c1)C(=O)N(C[C@@]1(c3cc4nc(C(=O)O)ccc4o3)NC(=O)NC1=O)C2 [Compound 1514]
10,0.87,COc1ccc2c(c1)C(=O)N(C[C@@]1(c3cc4nc(C(=O)NCCN(C)C)ccc4o3)NC(=O)NC1=O)C2 [Compound 1927]
11,0.4,COc1ccc2c(c1)C(=O)N(C[C@@]1(c3cc4nc(-c5cnc(N)nc5)ccc4o3)NC(=O)NC1=O)C2 [Compound 1519]
12,0.048,CCN1CCCN(c2ccc3oc([C@]4(CN5Cc6ccc(OC)c(F)c6C5=O)NC(=O)NC4=O)cc3n2)CC1 [Compound 1727]
13,0.185,COc1ccc2c(c1)C(=O)N(C[C@@]1(c3cc4c(-c5cn[nH]c5)nccc4o3)NC(=O)NC1=O)C2 [Compound 2283]
14,0.637,COc1ccc2c(c1)C(=O)N(C[C@@]1(c3cc4cc(-c5cnccc5OC)ccc4o3)NC(=O)NC1=O)C2 [Compound 2198]
15,1.8,COc1ccc2c(c1)C(=O)N(C[C@@]1(c3cc4cc(C(=O)NCCN(C)CCNC(=O)OC(C)(C)C)c(F)cc4o3)NC(=O)NC1=O)C2 [Compound 1278]
16,2.48,COc1ccc2c(c1OC)C(=O)N(C[C@@]1(c3cc4nc(C)c(Br)cc4o3)NC(=O)NC1=O)C2 [Compound 1918]
17,0.523,COc1ccc2c(c1)C(=O)N(C[C@@]1(c3cc4cc(-c5cc(N)n[nH]5)ccc4o3)NC(=O)NC1=O)C2 [Compound 2246]
18,0.49,O=C1NC(=O)[C@](CN2Cc3ccc(OCC4CC4)c(F)c3C2=O)(c2cc3cc4c(c(F)c3o2)C(=O)NC4)N1 [Compound 2493]
19,53.5,O=C1NC(=O)[C@](CN2Cc3ccc(O)c(I)c3C2=O)(c2cc3ncccc3o2)N1 [Compound 1736]
20,0.51,CCCN1CC=C(c2nc3cc([C@]4(CN5Cc6ccc(OC)c(F)c6C5=O)NC(=O)NC4=O)oc3cc2F)CC1 [Compound 1322]
21,2.24,COc1ccc2c(c1)C(=O)N(C[C@@]1(c3cc4ncc(CNCc5ccccc5)cc4o3)NC(=O)NC1=O)C2 [Compound 1912]
22,0.343,COc1ccc2c(c1)C(=O)N(C[C@@]1(c3cc4cc(CNc5ccccn5)ccc4o3)NC(=O)NC1=O)C2 [Compound 2181]
23,0.667,COc1ccc2c(c1)C(=O)N(C[C@@]1(c3cc4cc(C)nc(C)c4o3)NC(=O)NC1=O)C2 [Compound 204]

# System: TNF-α production from human whole blood
# Experiment: Inhibition of TNF-α production from human whole blood (hWBA), LPS stimulated, ELISA
# Type: cell-based
# Conditions: Homo sapiens, 3.5 h, human whole blood diluted 1:1, LPS stimulated, 3.5 h, TNF-α by ELISA; read-out: hWBA (IC50)
row,IC50 [nM],SMILES
1,3310,COc1ccc2c(c1)C(=O)N(C[C@@]1(c3cc4cc(Br)ccc4o3)NC(=O)NC1=O)C2 [Compound 2192]
2,1890,COc1ccc2c(c1)C(=O)N(C[C@@]1(c3cc4cc(-c5cnccc5OC)ccc4o3)NC(=O)NC1=O)C2 [Compound 2198]
3,3260,COc1ccc2c(c1)C(=O)N(C[C@@]1(c3cc4cc(C(=O)NCCN(C)CCNC(=O)OC(C)(C)C)c(F)cc4o3)NC(=O)NC1=O)C2 [Compound 1278]
4,110,COc1ccc2c(c1)C(=O)N(C[C@@]1(c3cc4cc(-c5cc(N)n[nH]5)ccc4o3)NC(=O)NC1=O)C2 [Compound 2246]
5,1650,COc1ccc2c(c1)C(=O)N(C[C@@]1(c3cc4cc(CNc5ccccn5)ccc4o3)NC(=O)NC1=O)C2 [Compound 2181]

row,SMILES,IC50 [nM]
1,COc1ccc2c(c1)C(=O)N(C[C@@]1(c3cc4nc(-c5cccs5)ccc4o3)NC(=O)NC1=O)C2 [Compound 2162],1410

# Same assay, conditions: Homo sapiens, LPS-stimulated human whole blood, TNF-α by ELISA; read-out: hWBA (IC50)
row,IC50 [nM],SMILES
1,364,COc1ccc2c(c1F)C(=O)N(C[C@@]1(c3cc4cc(-c5cc(=O)[nH]c(N)n5)ccc4o3)NC(=O)NC1=O)C2 [Compound 300]
2,367,COc1ccc2c(c1)C(=O)N(C[C@@]1(c3cc4nc(C(=O)NC5CC5)ccc4o3)NC(=O)NC1=O)C2 [Compound 1926]
3,1830,COc1ccc2c(c1)C(=O)N(C[C@@]1(c3cn4c5c(sc4n3)CN(C)CC5)NC(=O)NC1=O)C2 [Compound 503]
4,280,COc1ccc2c(c1F)C(=O)N(C[C@@]1(c3cc4nc(Nc5cccnc5)ccc4o3)NC(=O)NC1=O)C2 [Compound 1728]
5,195,COc1ccc2c(c1)C(=O)N(C[C@@]1(c3cc4nc(C(=O)O)ccc4o3)NC(=O)NC1=O)C2 [Compound 1514]
6,567,COc1ccc2c(c1)C(=O)N(C[C@@]1(c3cc4nc(C(=O)NCCN(C)C)ccc4o3)NC(=O)NC1=O)C2 [Compound 1927]
7,142,COc1ccc2c(c1)C(=O)N(C[C@@]1(c3cc4nc(-c5cnc(N)nc5)ccc4o3)NC(=O)NC1=O)C2 [Compound 1519]
8,154,CCN1CCCN(c2ccc3oc([C@]4(CN5Cc6ccc(OC)c(F)c6C5=O)NC(=O)NC4=O)cc3n2)CC1 [Compound 1727]
9,34200,COc1ccc2c(c1OC)C(=O)N(C[C@@]1(c3cc4nc(C)c(Br)cc4o3)NC(=O)NC1=O)C2 [Compound 1918]
10,> 10000,O=C1NC(=O)[C@](CN2Cc3ccc(O)c(I)c3C2=O)(c2cc3ncccc3o2)N1 [Compound 1736]
11,96,CCCN1CC=C(c2nc3cc([C@]4(CN5Cc6ccc(OC)c(F)c6C5=O)NC(=O)NC4=O)oc3cc2F)CC1 [Compound 1322]
12,3200,COc1ccc2c(c1)C(=O)N(C[C@@]1(c3cc4ncc(CNCc5ccccc5)cc4o3)NC(=O)NC1=O)C2 [Compound 1912]
13,4090,COc1ccc2c(c1)C(=O)N(C[C@@]1(c3cc4cc(C)nc(C)c4o3)NC(=O)NC1=O)C2 [Compound 204]

# Same assay, conditions: Homo sapiens, human whole blood diluted 1:1, LPS stimulated, TNF-α by ELISA; read-out: hWBA (IC50)
row,IC50 [nM],SMILES
1,7110,COc1ccc2c(c1)C(=O)N(C[C@@]1(c3ccc(C(=O)NS(C)(=O)=O)cc3)NC(=O)NC1=O)C2 [Compound 2406]
2,3420,CNc1cc2oc([C@]3(CN4Cc5ccc(OC)cc5C4=O)NC(=O)NC3=O)cc2cn1 [Compound 2291]
3,1230,COc1ccc2c(c1)C(=O)N(C[C@@]1(c3cc4cc(CNC(=O)N(C)C)ccc4o3)NC(=O)NC1=O)C2 [Compound 2486]
4,154,COc1ccc2c(c1)C(=O)N(C[C@@]1(c3cc4c(-c5cn[nH]c5)nccc4o3)NC(=O)NC1=O)C2 [Compound 2283]
5,349,O=C1NC(=O)[C@](CN2Cc3ccc(OCC4CC4)c(F)c3C2=O)(c2cc3cc4c(c(F)c3o2)C(=O)NC4)N1 [Compound 2493]

row,SMILES,IC50 [nM]
1,COc1ccc2c(c1)C(=O)N(C[C@@]1(c3cc4ccc(C(=O)N5CCNC(=O)C5)cc4o3)NC(=O)NC1=O)C2 [Compound 2422],519
2,COc1ccc2c(c1)C(=O)N(C[C@@]1(c3cc4c(C)nc(O)c(C(=O)O)c4o3)NC(=O)NC1=O)C2 [Compound 2436],2390
3,CCOC(=O)NCc1ccc2oc([C@]3(CN4Cc5ccc(OC)cc5C4=O)NC(=O)NC3=O)cc2c1 [Compound 2484],1690

# Reference: patent US8569336B2, “Compounds for the treatment of inflammatory disorders” (priority 2008, dated 2013)
